Assay results as given in patent US11530200B2, “Compounds” (Inflazome Limited, priority 2018, dated 2022).
Counter-ions that a name gives are not always drawn.

Key:
[1] = PK protocol, intravenous administration in rats; assay type: in vivo; settings: rat, plasma, male Sprague Dawley rats, 1 mg/kg; for Vd: read-out: Vdss
Description: Pharmacokinetic parameters were determined in male Sprague Dawley rats (Vital River Laboratory Animal Technology Co Ltd, Beijing, China, 7-9 weeks old). Animals were group housed during the study and maintained under a 12 h light/dark cycle. For intravenous administration, compounds were formulated as a solution in DMSO:PBS [10:90] in 2 mL/kg dosing volume and administered via tail vein. Serial blood samples (about 200 μL) were taken from each animal at each of 8 time-points post dose (0.083, 0.25, 0.5, 1, 2, 4, 8 and 24 h). Samples were held on ice for no longer than 30 minutes before centrifugation (5,696 rpm (3,000 g) for 15 minutes) for plasma generation. Plasma was frozen on dry ice prior to bioanalysis. PK parameters were generated from LC-MS/MS data using Phoenix WinNonlin 6.3 software.

NLRP3 = NLRP3 (Homo sapiens (Human), UniProt Q96P20); test: THP-1 cells pyroptosis assay (LPS priming, nigericin, resazurin readout); assay type: cell-based; settings: 1.0 μg/ml LPS, nigericin 5 μM, NLRP3 inhibitory activity
Sequence of NLRP3 (Q96P20 whole entry): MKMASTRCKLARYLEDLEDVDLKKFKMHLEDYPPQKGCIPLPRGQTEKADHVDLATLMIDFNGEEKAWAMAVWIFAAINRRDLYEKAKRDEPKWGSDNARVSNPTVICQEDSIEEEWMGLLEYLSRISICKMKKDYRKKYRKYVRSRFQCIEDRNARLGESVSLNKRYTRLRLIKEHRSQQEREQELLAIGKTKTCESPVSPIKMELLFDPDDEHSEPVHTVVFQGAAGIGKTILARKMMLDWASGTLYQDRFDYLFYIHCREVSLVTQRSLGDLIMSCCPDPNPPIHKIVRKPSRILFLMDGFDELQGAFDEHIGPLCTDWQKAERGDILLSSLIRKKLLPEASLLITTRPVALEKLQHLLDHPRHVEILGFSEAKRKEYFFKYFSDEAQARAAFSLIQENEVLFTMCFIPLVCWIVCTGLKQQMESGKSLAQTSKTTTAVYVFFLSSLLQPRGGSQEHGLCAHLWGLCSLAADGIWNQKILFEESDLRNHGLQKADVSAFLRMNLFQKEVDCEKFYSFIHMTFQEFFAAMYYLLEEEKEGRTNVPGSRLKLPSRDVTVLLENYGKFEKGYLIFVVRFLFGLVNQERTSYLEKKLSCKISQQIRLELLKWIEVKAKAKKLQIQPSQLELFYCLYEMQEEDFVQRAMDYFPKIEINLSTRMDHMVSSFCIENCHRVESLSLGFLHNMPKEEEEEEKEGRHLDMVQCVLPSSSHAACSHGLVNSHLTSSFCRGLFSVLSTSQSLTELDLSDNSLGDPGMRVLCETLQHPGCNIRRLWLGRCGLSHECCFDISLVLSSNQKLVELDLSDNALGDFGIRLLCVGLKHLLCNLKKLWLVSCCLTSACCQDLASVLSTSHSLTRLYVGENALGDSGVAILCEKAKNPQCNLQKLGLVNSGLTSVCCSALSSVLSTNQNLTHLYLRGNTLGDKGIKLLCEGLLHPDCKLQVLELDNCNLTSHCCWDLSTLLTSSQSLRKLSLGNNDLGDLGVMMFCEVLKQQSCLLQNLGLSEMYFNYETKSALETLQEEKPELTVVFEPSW
Description: THP-1 cells (ATCC #TIB-202) were grown in RPMI containing L-glutamine (Gibco #11835) supplemented with 1 mM sodium pyruvate (Sigma #S8636) and penicillin (100 units/ml)/streptomycin (0.1 mg/ml) (Sigma #P4333) in 10% Fetal Bovine Serum (FBS) (Sigma #F0804). The cells were routinely passaged and grown to confluency (10^6 cells/ml). On the day of the experiment, THP-1 cells were harvested and resuspended into RPMI medium (without FBS). The cells were then counted and viability (>90%) checked by Trypan blue (Sigma #T8154). Appropriate dilutions were made to give a concentration of 625,000 cells/ml. To this diluted cell solution was added LPS (Sigma #L4524) to give a 1 μg/ml Final Assay Concentration (FAC). 40 μl of the final preparation was aliquoted into each well of a 96-well plate. The plate thus prepared was used for compound screening. The following method step-by-step assay was followed for compound screening. • 1. Seed THP-1 cells (25,000 cells/well) containing 1.0 μg/ml LPS in 40 μl of RPMI medium (without FBS) in 96-well, black walled, clear bottom cell culture plates coated with poly-D-lysine (VWR #734-0317) • 2. Add […] compound (8 points half-log dilution, with […] top dose) or vehicle (DMSO 0.1% FAC) to the appropriate wells • 3. Incubate for 3 hrs at 37° C., 5% CO2 • 4. Add 5 μl nigericin (Sigma #N7143) (FAC 5 μM) to all wells • 5. Incubate for 1 hr at 37° C., 5% CO2 • 6. At the end of the incubation period, spin plates at 300×g for 3 mins and remove supernatant • 7. Then add 50 μl of resazurin (Sigma #R7017) (FAC 100 μM resazurin in RPMI medium without FBS) and incubate plates for a further 1-2 hrs at 37° C. and 5% CO2 • 8. Plates were read in an Envision reader at Ex 560 nm and Em 590 nm • 9. IC50 data is fitted to a non-linear regression equation (log inhibitor vs response-variable slope 4-parameters) The results of the pyroptosis assay are summarised in Table 1 below as THP IC50.

AUC [1] [ng·h/mL] | clearance [1] [mL/min/kg] | half-life [1] [h] | Vd [1] [L/kg] | IC50 (NLRP3) [µM] | Compound
1560 | 10.7 | 4.4 | 0.95 | 1 to 5 | CC(C)c1cc(F)cc(-c2cccnc2)c1CC(=O)NS(=O)(=O)c1cnn(C2CC2)c1 [Example 11, N-((1-Cyclopropyl-1H-pyrazol-4-yl)sulfonyl)-2-(4-fluoro-2-isopropyl-6-(pyridin-3-yl)phenyl)acetamide]
1550 | 15.4 | 16.4 | 6.52 | ≤ 1 | COc1cc(-c2cc(F)cc(C(C)C)c2CC(=O)NS(=O)(=O)c2cnn(C3CC3)c2)ccn1 [Example 18, N-((1-Cyclopropyl-1H-pyrazol-4-yl)sulfonyl)-2-(4-fluoro-2-isopropyl-6-(2-methoxypyridin-4-yl)phenyl)acetamide, potassium salt]
827 | 20.2 | 9.3 | 6.15 | 1 to 5 | COc1cc(-c2cc(F)cc(C(C)C)c2CC(=O)NS(=O)(=O)c2ncn(C3CC3)n2)ccn1 [Example 21, N-((1-Cyclopropyl-1H-1,2,4-triazol-3-yl)sulfonyl)-2-(4-fluoro-2-isopropyl-6-(2-methoxypyridin-4-yl)phenyl)acetamide]
1270 | 13.1 | 2.6 | 1.94 | 1 to 5 | CC(C)c1cc(F)cc(C(C)C)c1CC(=O)NS(=O)(=O)c1cnn(C2CC2)c1 [Example 24, N-((1-Cyclopropyl-1H-pyrazol-4-yl)sulfonyl)-2-(4-fluoro-2,6-diisopropylphenyl)acetamide]
